The source of these data is paper PMC7346179, “Fe Porphyrin-Based SOD Mimic and Redox-Active Compound, (OH)FeTnHex-2-PyP^4+, in a Rodent Ischemic Stroke (MCAO) Model: Efficacy and Pharmacokinetics as Compared to Its Mn Analogue, (H2O)MnTnHex-2-PyP^5+” (Antioxidants, 2020).

Values joined by “and” are separate entries in the source; they are usually repeats but may differ in a detail not shown here. Equal entries are not always repeated.

The conditions of data set [1]: mouse, in vivo; cited from earlier work.
Data set [2] relates to mice. Particulars: mouse, in vivo, ip, 10 mg/kg; cited from earlier work.
For data set [3] the following is noted: cited from earlier work.
Another data set deals with rat MCAO stroke model. Kind of data set: 7-day rat MCAO efficacy study. The format is in vivo, rats. Particulars: 0.225 mg/kg twice per day 7 days. The procedure:
The 7-day rat MCAO study was done as described in [9]. The 250–275 g Wistar rats were used as another species is a requirement for preclinical stroke research. The duration of the right MCAO was 90 min. […] The first dose was given IV slowly via the […] at 5 min after ischemia/reperfusion. The following doses were given SC. At day 7 post-injury, a person blinded to the treatment groups assessed the neurological deficit and then brains were harvested for infarct volume measurements.

The test system of data set [4] is mice. Particulars: mice, 5 mg/kg IP injection; cited from earlier work.
Data set [5] in a line: 7-day PK study in healthy rats. Particulars: healthy rats. The data set is classed as in vivo. The procedure: Samples were prepared as described in [10] with modifications to accommodate the small tissue sizes and enhance the detection sensitivity. Quantitative liquid chromatography electrospray-ionization tandem mass spectrometry (LCMS/MS) analysis was performed on a Shimadzu 20A series HPLC (LC)-Applied Biosystems/MDS Sciex API 3200 QTrap or API 4000 QTrap tandem-mass spectrometer (MS/MS) as described earlier. The use of heptafluorobutyric acid (HFBA) mobile phase modifier as an ion-pairing agent increases the overall lipophilicity and volatility, which increases the retention and ionization efficiency of the analytes, affording an abundance of HFBA-associated ions. […] (OH)FeTnBuOE-2-PyP^4+ was prepared as described for other Fe(III) N-alkylpyridylporphyrins and analogous (H2O)MnTnBuOE-2-PyP^5+ [13, 16]. The solvents employed were: A = 95:5 H2O:MeCN (0.1% HFBA); B = MeCN (0.1% HFBA). […] With the chosen solvent system, all four atropoisomers collapsed into a single peak, enhancing the sensitivity of the method to as low as 0.5 nM (nanomoles per L of tissue homogenate). Analyses were performed using a Phenomenex Luna C18 guard cartridge (ID × L, 2 × 4 mm) only. […] Their structures are also shown. […] The response was calculated as the ratio between the standard peak area and the internal standard peak area. We conducted a 7-day rat PK study under conditions identical to those that afforded the therapeutic efficacy of MnTnHex-2-PyP^5+ in an earlier study. […] Afterwards, blood/plasma samples were collected before injection and at 2 h after 24 h-injections (every second injection). Liver and brains were taken for analysis 12 h after the last injection. Three rats were used per compound. After the single (first) SC injection, we obtained a prototypical PK profile observed in the case of all Mn(III) ortho […] In contrast, although similarly absorbed after SC injection, the […] Our understanding is that the “elimination” process is actually a fast distribution/retention into/by the liver, kidney, and spleen, a multi-compartmental process responsible for early decay of the plasma concentration, observed for all Mn porphyrin analogs investigated.

The conditions of data set [6]: in vivo; cited from earlier work.
Data set [7] concerns rat middle cerebral artery occlusion (MCAO) stroke model. Particulars: cited from earlier work.
Data set [8] can be described thus: 2-h PK study in rats that underwent MCAO. The data set is classed as in vivo. Particulars: rats after 90-min MCAO, 0.225 mg/kg IV + 0.225 mg/kg SC, 2 h after reperfusion. The procedure: Samples were prepared as described in [10] with modifications to accommodate the small tissue sizes and enhance the detection sensitivity. Quantitative liquid chromatography electrospray-ionization tandem mass spectrometry (LCMS/MS) analysis was performed on a Shimadzu 20A series HPLC (LC)-Applied Biosystems/MDS Sciex API 3200 QTrap or API 4000 QTrap tandem-mass spectrometer (MS/MS) as described earlier. The use of heptafluorobutyric acid (HFBA) mobile phase modifier as an ion-pairing agent increases the overall lipophilicity and volatility, which increases the retention and ionization efficiency of the analytes, affording an abundance of HFBA-associated ions. […] (OH)FeTnBuOE-2-PyP^4+ was prepared as described for other Fe(III) N-alkylpyridylporphyrins and analogous (H2O)MnTnBuOE-2-PyP^5+ [13, 16]. The solvents employed were: A = 95:5 H2O:MeCN (0.1% HFBA); B = MeCN (0.1% HFBA). […] With the chosen solvent system, all four atropoisomers collapsed into a single peak, enhancing the sensitivity of the method to as low as 0.5 nM (nanomoles per L of tissue homogenate). Analyses were performed using a Phenomenex Luna C18 guard cartridge (ID × L, 2 × 4 mm) only. […] Their structures are also shown. […] The response was calculated as the ratio between the standard peak area and the internal standard peak area. Another possible cause for the failure of therapeutics in stroke may be their slow accumulation in the brain, i.e., not being there in time to prevent the burst of reactive species and rapid activation of transcription factors, which perpetuate oxidative stress. We therefore conducted short-term 2-h PK to evaluate how fast post-MCAO our drug gets into the brain. Three rats per compound were subjected to 90 min of transient right MCAO as reported. The first dose of 0.225 mg/kg was given IV via the […] at 5 min after ischemia/reperfusion. The second dose of 0.225 mg/kg was given SC at 30 min after reperfusion. Blood was collected at 2 h and plasma harvested. Rats were perfused with heparin saline (2000 IU/500 mL) until no reddish fluid came out from the right atrium. Then, the liver, and left and right brain were collected and placed on dry ice and stored at -20 °C. Plasma, liver, and brain were analyzed by LCMS/MS.

[9] abbreviates: SC 0.225 mg/kg BID 7 days, 12 h after last injection.
Where [10] appears, read: SC 0.225 mg/kg BID 7 days, WinNonlin simulation.

With `CCCCCC[n+]1ccccc1-c1c2nc(c(-c3cccc[n+]3CCCCCC)c3ccc([n-]3)c(-c3cccc[n+]3CCCCCC)c3nc(c(-c4cccc[n+]4CCCCCC)c4ccc1[n-]4)C=C3)C=C2.[Mn+3]` [MnHex, Mn(III) meso-tetrakis(N-n-hexylpyridinium-2-yl)porphyrin], in [1], the “accumulation in mitochondria relative to cytosol” value is 3.6 fold. In addition, in the data set on mice [2], the blood pressure drop result was “does cause a blood pressure drop”. In addition, in data set [3], the “log kcat(O2^•−), log of rate constant for catalysis of O2^•− dismutation” value is reported as 7.48. Moreover, in the data set on rat MCAO stroke model, the “p, cortex infarct volume vs vehicle” value is recorded as 0.046; the “p, neuroscore vs vehicle” value was 0.016; the “p, subcortex infarct volume vs vehicle” value turned out to be 0.049; the “p, total infarct volume vs vehicle” value is on record as 0.029. Further, the “neurological deficit (neuroscore and infarct volume)” value with rat MCAO stroke model (first dose IV, then SC) is recorded as “significantly improved”. Besides, the “toxicity / death of mice” value in the data set with mice [4] was “mice died”. In addition, in [5] (SC 0.225 mg/kg BID 7 days), the “brain level at end of 7-day treatment” value was determined as 25 nM. In data set [5] (setting [9]), the “brain concentration at end of 7-day treatment” value came out at 25 nM and the “end-of-treatment 7-day liver tissue level” value was 21 µM. Besides, in [5] (setting [10]), the “average plasma concentration (Caver)” value was 76 nM and the “plasma AUC” value was 11.5 µM·h. For the same compound, the Cmax in [5] (SC 0.225 mg/kg BID 7 days, WinNonlin simulation, read-out: Cmax at steady state, plasma) is 220 nM. Besides, the “elimination from plasma after single (first) SC injection” value in data set [5] (SC 0.225 mg/kg, first 12 h) was “eliminated from plasma within 12 h”. Besides, the plasma half-life in [5] (SC 0.225 mg/kg, estimated from simulation, 0.225 mg/kg) was 1.4 h and ~ 1.4 h. For the same compound, the “blood–brain barrier crossing” value in [6] was “crosses the BBB”. In addition, the “infarct size in earlier 7-day MCAO study” value in [7] was “significantly reduced the infarct size”. Also, the “neurologic outcome, infarct size and inflammation” value in data set [7] (rat MCAO stroke model and subarachnoid hemorrhage) is “improved the neurologic outcome and decreased infarct size and inflammation”. Besides, the “brain level in earlier 7-day MCAO study” value in data set [7] (rat, in vivo) is reported as ~ 30 nM. Besides, the “level in injured (right) brain hemisphere” value in data set [8] is listed as ~ 35 nM.

As usually defined, the Cmax is the peak of the concentration-time curve.
